The values below come from patent publication US5045566A, “Novel imidate insecticides” (ICI Americas Inc., priority 1989, dated 1991).

The structures appear in SMILES notation.

Holding throughout (format): in vivo
Test [1] has as its system Housefly [Musca domestica]. Nature of the test: Housefly contact mortality in dishes (HF), 48 hours. The note with it: μg of test compound per 25 female flies. The method, boiled down: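 Acetone solutions (with 0.01% peanut oil) dried onto dish bottoms, then 25 female flies, 1-2 days old, caged over the residue with sugar water. Mortality scored at 48 hours; LC50 from dosage-mortality curves, in μg per 25 female flies, top level 100 μg.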

Test [2] deals with Black Bean Aphid [Aphis fabae (Scop.)]. Nature of the test: Black bean aphid spray test on nasturtium (BBA), 48 hours. The note with it: percent of test compound in sprayed solution. The procedure, abridged: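 LC50, given as percent test compound in the sprayed liquid, was calculated from dosage-mortality curves using concentrations from 0.05% downward. Sprays in 50:50 acetone-water went to runoff on ~5 cm nasturtiums carrying 25-50 aphids of mixed ages, one day after infestation. Deaths were counted 48 h later under greenhouse conditions.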

Test [3] concerns Tobacco Budworm [Heliothis virescens (Fabricius)] eggs. The experiment in a line: Tobacco budworm eggs (TBW-E). The note with it: percent in solution; 2-day old eggs. The procedure, abridged:
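Paper-towel patches of 2-day-old eggs dipped in acetone solutions of compound (0.1% downward), held on larval rearing medium at 78° F. Mortality scored once all control eggs had hatched and larvae were feeding; LC50 from dosage-mortality curves, expressed as percent compound in solution.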

The subject of test [4] is Cabbage Looper [Trichoplusia ni (Hubner)]. Nature of the test: Cabbage looper leaf dip (CL), 3-5 days. To be noted: percent in solution, second-instar larvae. The procedure, abridged: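 Squash cotyledons dipped 2-3 s in compound in 50-50 acetone-water, dried, then infested with 5 second-instar larvae and held at high humidity. Mortality scored after 3-5 days at concentrations from 0.1% downward. LC50 from dosage-mortality curves, expressed as percent compound in solution.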

The subject of test [5] is Aster Leafhopper [Macrosteles fascifrens (Stal)]. Nature of the test: Aster leafhopper on dipped oat seedlings (LH), 48 hours. To be noted: percent in solution, adults/nymphs. The procedure, abridged:
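Three ~10 cm oat seedlings per cup were dipped 2-3 seconds in 50-50 acetone-water compound solutions, dried, and caged with ten adult/nymph leafhoppers. Mortality was counted after 48 hours at concentrations from 0.05% downward. LC50, as percent compound in solution, came from dosage-mortality curves.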

The subject of test [6] is Maize weevil [Sitophilus zeamais (Motschulsky)]. The experiment in a line: Maize weevil on dipped corn seeds (MW), 48 hours. To be noted: percent in solution, adult weevils. The method, boiled down: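 LC50, given as percent of compound in dipping solution, comes from dosage-mortality curves over concentrations descending from 0.01%. Four corn seeds soaked 2-3 s in 50:50 acetone:water solution were dried and held with 10 adult weevils, about 25° C, mortality read after 48 h.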

Regarding `CC(C)(F)C(=Nc1ccc(F)c(Cl)c1)OCc1cccc(Oc2ccc(F)cc2F)c1` [Compound 315], the “LC50 HF” value in test [1] was greater than 100 µg. Moreover, the “LC50 BBA” value in test [2] was greater than 0.05%. Also, the “LC50 TBW E (eggs)” value in test [3] is greater than 0.1%. In addition, in test [4], the “LC50 CL” value was determined as 0.002%. Besides, the “LC50 LH” value in test [5] is greater than 0.05%. Moreover, the “LC50 MW” value in test [6] is greater than 0.01%.
On to `C#CC(OC(=Nc1ccc(F)c(Cl)c1)C(C)C)c1cccc(Oc2ccccc2)c1` (stereo not drawn) [Compound 533, N-(3-chloro-4-fluorophenyl)-O-[1-(3-phenoxyphenyl)-2-propyn-1-yl]isobutyrimidate], for which the “LC50 HF” value in test [1] is 60 µg. Moreover, in test [2], the “LC50 BBA” value was greater than 0.05%. Besides, the “LC50 TBW E (eggs)” value in test [3] is greater than 0.1%. In addition, the “LC50 CL” value in test [4] is reported as greater than 0.1%. For the same compound, the “LC50 LH” value in test [5] is reported as greater than 0.05%. Also, the “LC50 MW” value in test [6] was greater than 0.01%.
With `CC(C)C(=Nc1ccc(F)c(Cl)c1)OCc1cccc(Cc2ccccc2)c1` [Compound 541], the “LC50 HF” value in test [1] is less than 100 µg. The “LC50 BBA” value in test [2] was found to be 0.004%. Besides, the “LC50 TBW E (eggs)” value in test [3] is reported as greater than 0.1%. The “LC50 CL” value in test [4] is recorded as 0.001%. Moreover, in test [5], the “LC50 LH” value was greater than 0.05%. For the same compound, the “LC50 MW” value in test [6] is greater than 0.01%.
As for `CC(C)C(=Nc1cccc(C(F)(F)F)c1)OCc1ccnc(Oc2ccc(Cl)cc2)c1` [Compound 517], the “LC50 HF” value in test [1] is 80 µg. In test [2], the “LC50 BBA” value is listed as greater than 0.05%. Further, the “LC50 TBW E (eggs)” value in test [3] is 0.04%. For the same compound, in test [4], the “LC50 CL” value was determined as 0.0008%. The “LC50 LH” value in test [5] is on record as greater than 0.05%. Further, the “LC50 MW” value in test [6] was greater than 0.01%.
`Cc1ccc(N=C(OCc2ccc(F)c(Oc3ccc(F)cc3)c2)C(C)C)cc1F` [Compound 355]: the “LC50 HF” value in test [1] is less than 100 µg. Further, the “LC50 BBA” value in test [2] was 0.0006%. Moreover, the “LC50 TBW E (eggs)” value in test [3] is greater than 0.1%. Besides, the “LC50 CL” value in test [4] is greater than 0.1%. Further, the “LC50 LH” value in test [5] was less than 0.05%. In test [6], the “LC50 MW” value was greater than 0.01%.
As for `Cc1cccc(N=C(OCc2cccc(Oc3ccccc3)c2)C(C)C)c1` [Compound 155], the “LC50 HF” value in test [1] turned out to be 9 µg. For the same compound, in test [2], the “LC50 BBA” value is reported as 0.001%. Also, in test [3], the “LC50 TBW E (eggs)” value was 0.06%. Moreover, in test [4], the “LC50 CL” value worked out at 0.004%. For the same compound, in test [5], the “LC50 LH” value is recorded as greater than 0.05%. In addition, the “LC50 MW” value in test [6] is greater than 0.01%.
Regarding `COc1ccc(N=C(OCc2ccc(F)c(Oc3ccc(F)cc3)c2)C(C)C)cc1OC` [Compound 363], the “LC50 HF” value in test [1] is less than 100 µg. Also, the “LC50 BBA” value in test [2] is 0.005%. For the same compound, in test [3], the “LC50 TBW E (eggs)” value is reported as greater than 0.1%. Besides, the “LC50 CL” value in test [4] is greater than 0.1%. For the same compound, the “LC50 LH” value in test [5] is given as greater than 0.05%. Further, the “LC50 MW” value in test [6] is recorded as greater than 0.01%.
Turning to `CC(C)C(=Nc1ccc(F)c(Cl)c1)OCc1cccc(OCc2ccc(F)cc2)c1` [Compound 490], the “LC50 HF” value in test [1] was greater than 100 µg. Further, the “LC50 BBA” value in test [2] was greater than 0.05%. In addition, the “LC50 TBW E (eggs)” value in test [3] is greater than 0.1%. The “LC50 CL” value in test [4] came out at 0.0045%. Also, the “LC50 LH” value in test [5] is recorded as greater than 0.05%. Also, in test [6], the “LC50 MW” value is greater than 0.01%.
As for `COC(=O)c1ccc(N=C(OCc2cccc(Oc3ccccc3)c2)C(C)C)cc1` [Compound 151], the “LC50 HF” value in test [1] worked out at 38 µg. In addition, the “LC50 BBA” value in test [2] came to 0.006%. Also, the “LC50 TBW E (eggs)” value in test [3] is given as greater than 0.1%. Further, the “LC50 CL” value in test [4] was determined as 0.009%. Further, the “LC50 LH” value in test [5] is recorded as greater than 0.05%. Besides, in test [6], the “LC50 MW” value was greater than 0.01%.
With `N#CC(=Nc1ccc(Cl)cc1)OCc1cccc(Oc2ccccc2)c1` [Compound 21], the “LC50 HF” value in test [1] was 7 µg. Further, the “LC50 BBA” value in test [2] is listed as greater than 0.1%. Besides, in test [3], the “LC50 TBW E (eggs)” value is given as greater than 0.1%. Besides, in test [4], the “LC50 CL” value stood at 0.02%. Moreover, the “LC50 LH” value in test [5] is recorded as greater than 0.05%. In addition, the “LC50 MW” value in test [6] was greater than 0.01%.
Take `CSc1ccc(N=C(OCc2ccc(F)c(Oc3ccccc3)c2)C(C)C)cc1` [Compound 353]: the “LC50 HF” value in test [1] is less than 100 µg. Further, in test [2], the “LC50 BBA” value is 0.001%. In addition, in test [3], the “LC50 TBW E (eggs)” value is greater than 0.1%. Besides, the “LC50 CL” value in test [4] is greater than 0.1%. Also, in test [5], the “LC50 LH” value was greater than 0.05%. The “LC50 MW” value in test [6] was greater than 0.01%.
As to `CC(C)C(=Nc1ccccc1)OCc1cccc(Oc2ccccc2)c1` [Compound 43], the “LC50 HF” value in test [1] was determined as 7 µg. The “LC50 BBA” value in test [2] is recorded as 0.001%. In addition, the “LC50 TBW E (eggs)” value in test [3] came to 0.05%. Further, in test [4], the “LC50 CL” value is reported as 0.018%. For the same compound, the “LC50 LH” value in test [5] is recorded as greater than 0.05%. In addition, in test [6], the “LC50 MW” value is on record as greater than 0.01%.
On to `CC(C)C(=Nc1ccc(Br)cc1F)OCc1cccc(Oc2ccc(F)cc2)c1` [Compound 351], for which the “LC50 HF” value in test [1] was determined as 26 µg. For the same compound, the “LC50 BBA” value in test [2] is 0.001%. For the same compound, the “LC50 TBW E (eggs)” value in test [3] is given as greater than 0.1%. The “LC50 CL” value in test [4] was 0.0007%. The “LC50 LH” value in test [5] is listed as greater than 0.05%. Also, the “LC50 MW” value in test [6] is reported as greater than 0.01%.
Turning to `C#CCc1c(F)c(F)c(COC(=Nc2ccc3c(c2)OCO3)C(C)C)c(F)c1F` [Compound 547], the “LC50 HF” value in test [1] is less than 100 µg. Also, the “LC50 BBA” value in test [2] turned out to be 0.0006%. Moreover, in test [3], the “LC50 TBW E (eggs)” value is 0.05%. Also, the “LC50 CL” value in test [4] came out at 0.0005%. Also, the “LC50 LH” value in test [5] is on record as less than 0.05%. Further, in test [6], the “LC50 MW” value is given as greater than 0.01%.
`Cc1c(COC(=Nc2ccc(C(C)(C)C)cc2)C(C)C)cccc1-c1ccccc1` [Compound 536]: in test [1], the “LC50 HF” value is greater than 100 µg. Besides, the “LC50 BBA” value in test [2] is recorded as less than 0.05%. For the same compound, the “LC50 TBW E (eggs)” value in test [3] is listed as greater than 0.1%. Besides, the “LC50 CL” value in test [4] is on record as less than 0.1%. The “LC50 LH” value in test [5] is recorded as greater than 0.05%. In test [6], the “LC50 MW” value is greater than 0.01%.
For the compound `CC(C)C(=Nc1ccc(F)c(Cl)c1)OCc1cccc(Oc2ccccn2)c1` [Compound 549], in test [1], the “LC50 HF” value was less than 100 µg. Also, the “LC50 BBA” value in test [2] is greater than 0.05%. Moreover, the “LC50 TBW E (eggs)” value in test [3] is greater than 0.1%. The “LC50 CL” value in test [4] is recorded as greater than 0.1%. Also, the “LC50 LH” value in test [5] was greater than 0.05%. Besides, in test [6], the “LC50 MW” value was greater than 0.01%.
Turning to `C#CCc1c(F)c(F)c(COC(=Nc2cccc(C(F)(F)F)c2)C(C)C)c(F)c1F` [Compound 546], the “LC50 HF” value in test [1] is less than 100 µg. The “LC50 BBA” value in test [2] stood at 0.001%. In addition, the “LC50 TBW E (eggs)” value in test [3] is greater than 0.1%. Moreover, in test [4], the “LC50 CL” value worked out at 0.0001%. Also, the “LC50 LH” value in test [5] is less than 0.05%. Besides, in test [6], the “LC50 MW” value was 0.0032%.
In the case of `CC(C)C(=Nc1cccc(C(F)(F)F)c1)OCC#CCOc1ccccc1` [Compound 548], in test [1], the “LC50 HF” value is greater than 100 µg. Besides, the “LC50 BBA” value in test [2] is listed as greater than 0.05%. For the same compound, in test [3], the “LC50 TBW E (eggs)” value is recorded as greater than 0.1%. Besides, the “LC50 CL” value in test [4] is listed as less than 0.1%. Further, the “LC50 LH” value in test [5] was greater than 0.05%. Further, in test [6], the “LC50 MW” value is recorded as greater than 0.01%.
Turning to `COc1ccc(N=C(OCc2cccc(Oc3ccccc3)c2)C(C)C)cc1` [Compound 160], the “LC50 HF” value in test [1] is 7 µg. Also, the “LC50 BBA” value in test [2] is 0.003%. For the same compound, the “LC50 TBW E (eggs)” value in test [3] is listed as 0.09%. Besides, in test [4], the “LC50 CL” value turned out to be 0.005%. In addition, the “LC50 LH” value in test [5] came out at 0.05%. The “LC50 MW” value in test [6] is recorded as greater than 0.01%.
